According to patent US9453038B2, “Glucokinase activator compounds, compositions containing such compounds, and methods of treatment” (Merck Sharp & Dohme Corp., priority 2012, dated 2016):

Target: Recombinant human liver glucokinase (FLAG fusion protein) (Homo sapiens (Human), UniProt P35557)
Experiment: glucokinase (GK) activation assay, Thio-NADH formation coupled to G6PDH, absorbance at 405 nm
Format: biochemical
Conditions: 2.5 mM Glu; for EC50: 30° C.; for Emax: OD value of DMSO control regarded as 100%, read-out: Emax
Text: The glucokinase activity can, for instance, be determined without directly measuring glucose-6-phosphate by measuring the amount of Thio-NADH generated during the production of phosphogluconolactone from glucose-6-phosphate by a reporter enzyme glucose-6-phosphate dehydrogenase.
To test the exemplified compounds, the following assay was employed. Recombinant human liver glucokinase was expressed as a FLAG fusion protein in E. coli, and purified on ANTIFLAG M2 AFFINITY GEL (Sigma). The assay was carried out at 30° C. in a 96-well plate. In the plate was distributed 69 μl each of assay buffer (25 mM Hepes Buffer: pH=7.2, 2 mM MgCl2, 1 mM ATP, 0.5 mM TNAD, 1 mM dithiothreitol), to which was added 1 μl of a DMSO solution of the compound or DMSO as control. Then, 20 μl of pre-ice-cooled enzyme mixture (FLAG-GK, 20 U/ml G6PDH) was distributed thereto, to which was added 10 μl of 25 mM glucose as substrate to initiate the reaction (final glucose concentration=2.5 mM). After starting the reaction, the absorbance at 405 nm was measured every 30 seconds for 10 minutes to evaluate the compound based on the initial increase for 5 minutes. FLAG-GK was added so that the increase of absorbance after 5 minutes fell between 0.05 to 0.1 in the presence of 1% DMSO.
The OD values of the respective compounds were measured in the respective concentrations, wherein the OD value of DMSO as control is regarded as 100%. From the OD values at the respective concentrations, Emax (%, 2.5 mM Glu) and EC50 (nM, 2.5 mM Glu) were calculated and used as indicators of the GK activation capability of the compounds. According to the above assay, the GK activation capability of the exemplified compounds of the present invention was determined. […] Where different enantiomers of the same compound were tested, two numbers are provided. Where 3 numbers are provided, for example, Ex. #30, data for the racemic form is also shown.

Sequence of Recombinant human liver glucokinase (FLAG fusion protein) (P35557 other isoform, or with tags, fused parts or gaps): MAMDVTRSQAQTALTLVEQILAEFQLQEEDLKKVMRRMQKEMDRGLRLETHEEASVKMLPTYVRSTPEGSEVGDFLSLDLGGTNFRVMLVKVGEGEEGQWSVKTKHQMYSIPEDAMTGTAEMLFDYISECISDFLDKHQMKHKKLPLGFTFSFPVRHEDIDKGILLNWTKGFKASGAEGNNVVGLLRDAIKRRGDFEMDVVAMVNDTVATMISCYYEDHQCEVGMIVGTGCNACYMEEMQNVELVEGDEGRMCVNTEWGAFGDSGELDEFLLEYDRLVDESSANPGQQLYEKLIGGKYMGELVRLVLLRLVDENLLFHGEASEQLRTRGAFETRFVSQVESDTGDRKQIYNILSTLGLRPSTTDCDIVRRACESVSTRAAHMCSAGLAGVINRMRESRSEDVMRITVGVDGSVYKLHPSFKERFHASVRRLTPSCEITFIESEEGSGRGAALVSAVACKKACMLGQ

| Compound | EC50 [nM] | Emax [%] |
| --- | --- | --- |
| CN1C(=O)CCC1c1cc2[nH]c(-c3ccc(OCC(=O)O)cn3)cc2cc1Oc1ccc(S(C)(=O)=O)nc1 (stereo not shown) [Example 18, 2-((6-(6-(1-methyl-5-oxopyrrolidin-2-yl)-5-((6-(methylsulfonyl)pyridin-3-yl)oxy)-1H-indol-2-yl)pyridin-3-yl)oxy)acetic acid] | 81 | 612 |
| COCc1ccc(Oc2cc3cc(-c4ccc(CCC(=O)O)cn4)[nH]c3cc2C2CCC(=O)N2C)cn1 (stereo not shown) [Example 19, 3-(6-(5-((6-(methoxymethyl)pyridin-3-yl)oxy)-6-(1-methyl-5-oxopyrrolidin-2-yl)-1H-indol-2-yl)pyridin-3-yl)propanoic acid] | 71.8 | 431 |
| CN1C(=O)CCC1c1cc2[nH]c(-c3ccc(C(F)(F)F)cn3)cc2cc1Oc1ccc(CC(=O)O)cc1 (stereo not shown) [Example 20, 2-(4-((6-(1-methyl-5-oxopyrrolidin-2-yl)-2-(5-(trifluoromethyl)pyridin-2-yl)-1H-indol-5-yl)oxy)phenyl)acetic acid] | 63.9 | 521 |
| CN1C(=O)CCC1c1cc2[nH]c(-c3cnccn3)cc2cc1Oc1ccc(CCC(=O)O)cc1 (stereo not shown) [Example 21, 3-(4-((6-(1-methyl-5-oxopyrrolidin-2-yl)-2-(pyrazin-2-yl)-1H-indol-5-yl)oxy)phenyl)propanoic acid] | 39.1 | 628 |
| CN1C(=O)CCC1c1cc2[nH]c(-c3ccccc3)cc2cc1Oc1ccc(CCC(=O)O)cc1 (stereo not shown) [Example 22, 3-(4-((6-(1-methyl-5-oxopyrrolidin-2-yl)-2-phenyl-1H-indol-5-yl)oxy)phenyl)propanoic acid] | 456 | 410 |
| COC(=O)CCc1ccc(Oc2cc3cc(-c4cnccn4)[nH]c3cc2C2CCC(=O)N2C)cc1 (stereo not shown) [Example 23, methyl 3-(4-((6-(1-methyl-5-oxopyrrolidin-2-yl)-2-(pyrazin-2-yl)-1H-indol-5-yl)oxy)phenyl)propanoate] | 2.1 | 574 |
| COC(=O)Cc1ccc(Oc2cc3cc(-c4ccccn4)[nH]c3cc2C2CCC(=O)N2C)cc1 (stereo not shown) [Example 25, methyl 2-(4-((6-(1-methyl-5-oxopyrrolidin-2-yl)-2-(pyridin-2-yl)-1H-indol-5-yl)oxy)phenyl)acetate] | 21 | 649 |
| COC(=O)CCc1ccc(Oc2cc3cc(-c4ccccn4)[nH]c3cc2C2CCC(=O)N2C)cc1 (stereo not shown) [Example 26, methyl 3-(4-((6-(1-methyl-5-oxopyrrolidin-2-yl)-2-(pyridin-2-yl)-1H-indol-5-yl)oxy)phenyl)propanoate] | 4.3 | 545 |
| CN1C(=O)CCC1c1cc2[nH]c(-c3ccccn3)cc2cc1Oc1ccc(CC(=O)O)cc1 (stereo not shown) [Example 27, 2-(4-((6-(1-methyl-5-oxopyrrolidin-2-yl)-2-(pyridin-2-yl)-1H-indol-5-yl)oxy)phenyl)acetic acid] | 23.8 | 630 |
| CN1C(=O)CCC1c1cc2[nH]c(-c3nc(CC(=O)O)c(Cl)s3)cc2cc1Oc1ccc(S(C)(=O)=O)nc1 (stereo not shown) [Example 30, 2-(5-chloro-2-(6-(1-methyl-5-oxopyrrolidin-2-yl)-5-((6-(methylsulfonyl)pyridin-3-yl)oxy)-1H-indol-2-yl)thiazol-4-yl)acetic acid] | 49.1 | 506 |
| CN1C(=O)CCC1c1cc2[nH]c(-c3ncc(CCC(=O)O)s3)cc2cc1Oc1ccc(S(C)(=O)=O)nc1 (stereo not shown) [Example 31, 3-(2-(6-(1-methyl-5-oxopyrrolidin-2-yl)-5-((6-(methylsulfonyl)pyridin-3-yl)oxy)-1H-indol-2-yl)thiazol-5-yl)propanoic acid] | 68.8 | 599 |
| COC(=O)Cc1csc(-c2cc3cc(Oc4ccc(S(C)(=O)=O)cc4)c(C4CCC(=O)N4C)cc3[nH]2)n1 (stereo not shown) [Example 32, methyl 2-(2-(6-(1-methyl-5-oxopyrrolidin-2-yl)-5-(4-(methylsulfonyl)phenoxy)-1H-indol-2-yl)thiazol-4-yl)acetate] | 65.1 | 566 |
| CN1C(=O)CCC1c1cc2[nH]c(-c3nc(CC(=O)O)c(Cl)s3)cc2cc1Oc1ccc(S(C)(=O)=O)cc1 (stereo not shown) [Example 33, 2-(5-chloro-2-(6-(1-methyl-5-oxopyrrolidin-2-yl)-5-(4-(methylsulfonyl)phenoxy)-1H-indol-2-yl)thiazol-4-yl)acetic acid] | 47.4 | 586 |
| CN1C(=O)CCC1c1cc2[nH]c(-c3nc(CC(=O)O)cs3)cc2cc1Oc1ccc(S(C)(=O)=O)cc1 (stereo not shown) [Example 34, 2-(2-(6-(1-methyl-5-oxopyrrolidin-2-yl)-5-(4-(methylsulfonyl)phenoxy)-1H-indol-2-yl)thiazol-4-yl)acetic acid] | 118 | 606 |
| COC(=O)CCc1cnc(-c2cc3cc(Oc4ccc(S(C)(=O)=O)cc4)c(C4CCC(=O)N4C)cc3[nH]2)s1 (stereo not shown) [Example 35, methyl 3-(2-(6-(1-methyl-5-oxopyrrolidin-2-yl)-5-(4-(methylsulfonyl)phenoxy)-1H-indol-2-yl)thiazol-5-yl)propanoate] | 8.9 | 656 |
| CN1C(=O)CCC1c1cc2[nH]c(-c3ncc(CCC(=O)O)s3)cc2cc1Oc1ccc(S(C)(=O)=O)cc1 (stereo not shown) [Example 36, 3-(2-(6-(1-methyl-5-oxopyrrolidin-2-yl)-5-(4-(methylsulfonyl)phenoxy)-1H-indol-2-yl)thiazol-5-yl)propanoic acid] | 66.7 | 619 |
| CCOP(=O)(Cc1cnc(-c2cc3cc(Oc4ccc(S(C)(=O)=O)nc4)c(C4CCC(=O)N4C)cc3[nH]2)s1)OCC (stereo not shown) [Example 37, diethyl((2-(6-(1-methyl-5-oxopyrrolidin-2-yl)-5-((6-(methylsulfonyl)pyridin-3-yl)oxy)-1H-indol-2-yl)thiazol-5-yl)methyl)phosphonate] | 23.5 | 696 |
